# Columns and labels:
# [1] = target: T1, aromatase (Homo sapiens, UniProt P11511); experiment: Aromatase inhibition assay; format: biochemical
# T1 sequence (P11511 1-503): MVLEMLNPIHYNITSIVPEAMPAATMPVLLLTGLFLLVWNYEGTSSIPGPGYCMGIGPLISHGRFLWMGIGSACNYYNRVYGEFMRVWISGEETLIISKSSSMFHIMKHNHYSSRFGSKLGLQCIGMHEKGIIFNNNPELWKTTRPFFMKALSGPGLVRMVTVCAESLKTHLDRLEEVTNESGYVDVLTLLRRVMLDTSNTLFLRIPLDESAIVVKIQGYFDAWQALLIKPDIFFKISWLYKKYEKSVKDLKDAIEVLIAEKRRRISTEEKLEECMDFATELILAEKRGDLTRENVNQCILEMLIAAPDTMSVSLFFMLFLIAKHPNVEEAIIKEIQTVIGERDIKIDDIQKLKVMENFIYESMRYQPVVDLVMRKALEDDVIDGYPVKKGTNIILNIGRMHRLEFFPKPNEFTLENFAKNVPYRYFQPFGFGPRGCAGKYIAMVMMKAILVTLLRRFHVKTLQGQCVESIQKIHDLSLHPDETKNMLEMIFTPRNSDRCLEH
# [2] = test system: quinone reductase 1 (QR1); experiment: QR1 induction assay; format: cell-based; settings: for fold induction at 50 µM: read-out: QR1 IR (induction ratio), induction ratio at a concentration of 50 μM
Anti-aromatase activity (in words) [1],Structure (SMILES),QR1 induction activity (in words) [2],other results
did not show encouraging activity,c1ccc2[nH]c(-c3ccsc3)cc2c1 [Compound 22],inactive,
,Cn1c(-c2ccccc2)cc2cc([N+](=O)[O-])ccc21 [Compound 24a],,Fold increase in aromatase activity over free NH derivative 24 ([1]; relative to 24): 2 fold
,Fc1cc(F)cc(-c2cc3ccccc3[nH]2)c1 [Compound 15],inactive,
,Cc1ccccc1-c1cc2cc([N+](=O)[O-])ccc2[nH]1 [Compound 25],,fold induction at 50 µM [2]: < 1.5
,Nc1ccc(-c2cc3ccccc3[nH]2)cc1 [Compound 18],inactive,
,"N#Cc1c(-c2ccccc2)[nH]c2ccccc12 [Compound 2d, 3-cyano-2-phenylindole]",,IC50 [1]: 1610 ± 200 nM; inhibition at 50 µM ([1]; read-out: Aromatase % inhibition): 88 ± 1.07%; fold induction at 50 µM [2]: 0.55 ± 0.64
,"O=c1cc(-c2ccc(Br)cc2)oc2ccccc12 [4′-bromoflavone, reference compound]",,EC (2-fold activity) ([2]; read-out: QR1 CD (concentration that double the activity)): 0.01 µM
,Clc1ccccc1-c1cc2ccccc2[nH]1 [Compound 9],,fold induction at 50 µM [2]: < 1.5
totally destroyed aromatase activity,O=[N+]([O-])c1ccc2[nH]c(-c3ccc(Cl)c(Cl)c3)cc2c1 [Compound 31],,
,c1cncc(-c2cc3ccccc3[nH]2)c1 [Compound 21],inactive,
only slight activity,"c1ccc(-c2cc3ccccc3[nH]2)cc1 [Compound 1, 2-phenylindole]",very good QR1 induction activity,
,CN(C)c1ccc(-c2cc3ccccc3[nH]2)cc1 [Compound 20],inactive,
did not show encouraging activity,COc1ccc2ccc(-c3cc4ccccc4[nH]3)cc2c1 [Compound 23],inactive,
not active,Cn1c(-c2ccc(Cl)c(Cl)c2)cc2cc([N+](=O)[O-])ccc21 [Compound 31a],,
did not show significant activity,"c1ccc(C2Cc3ccccc3N2)cc1 (stereo not shown) [Compound 1f, 2-phenylindoline]",weak activity,
,CCCCCc1ccc(-c2cc3ccccc3[nH]2)cc1 [Compound 17],inactive,
,COc1cc(OC)cc(-c2cc3ccccc3[nH]2)c1 [Compound 7],,Fold increase in QR1 induction activity over 1 ([2]; relative to 1): 2 fold
,Clc1ccc(-c2cc3ccccc3[nH]2)cc1Cl [Compound 8],inactive,

Structure (SMILES),Anti-aromatase activity (in words) [1],QR1 induction activity (in words) [2],other results
"c1ccc(-c2nc3ccccc3[nH]2)cc1 [Compound 34, 2-phenylbenzimidazole, reference compound]",not active,,

# — article PMC5705205 (Bioorganic & medicinal chemistry letters, 2017)
